The source of these data is patent publication US12679878B2, “CRF2 receptor agonists and their use in therapy” (SANOFI, priority 2020, dated 2026).

The structures appear in SMILES notation. Read-outs that look alike come from different tables or passages of the source. Starred links: 1 amine or outer side, 2 acyl side, 3 side chain; linkers in the order of their positions; H or OH if unused. Non-standard residues stand in square brackets, D forms with d. Residues, ends and D or L forms follow the SMILES beside them. Groups on a side chain read outwards from the residue. *: point of attachment. C18 diacid = O=C(O)CCCCCCCCCCCCCCCCC(=O)*; γGlu = O=C(O)[C@H](CCC(=O)[*:2])N[*:1]; AEEA = NCCOCCOCC(=O)O; Aib = CC(C)(N)C(=O)O

The target of this test is T1, human CRF2α receptor (Homo sapiens, UniProt Q13324).
T1 construct: expressed in transfected cells; host or cells: TeloHEAC
T1 sequence (Q13324 1-411): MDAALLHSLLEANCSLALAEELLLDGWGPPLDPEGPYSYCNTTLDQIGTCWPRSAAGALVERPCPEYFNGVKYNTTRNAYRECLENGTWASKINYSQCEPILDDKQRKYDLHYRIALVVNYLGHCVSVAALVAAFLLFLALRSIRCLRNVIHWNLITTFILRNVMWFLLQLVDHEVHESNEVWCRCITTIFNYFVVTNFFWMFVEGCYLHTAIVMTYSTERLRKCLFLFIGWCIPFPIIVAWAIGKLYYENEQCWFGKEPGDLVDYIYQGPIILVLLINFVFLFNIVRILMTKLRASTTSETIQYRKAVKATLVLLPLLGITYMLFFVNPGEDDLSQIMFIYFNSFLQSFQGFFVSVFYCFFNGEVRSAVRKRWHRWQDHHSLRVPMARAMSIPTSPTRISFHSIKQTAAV
The experiment in a line: cAMP agonism at human CRF2 α receptor in TeloHEAC cells (Example 7). In kind it is cell-based. To be noted: cAMP HTRF, TeloHEAC cells stably expressing human CRF2 α. Summed up: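 Cryopreserved cells are thawed, washed and resuspended in IBMX-containing (2 mM) HEPES-buffered HBSS with or without 0.1% HSA. Compound incubation runs 30 min at room temperature with 2000 cells per well, then cAMP is measured by time-resolved FRET. Potency is expressed as EC50, efficacy relative to urocortin 2 at 1000 nM.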

Setting [1] is: 0% HSA, read-out: EC50 [nM], 0% HSA.
The mark [2] stands for this setting: 0.1% HSA, read-out: EC50 [nM], 0.1% HSA.

As usually defined, the EC50 is the concentration needed to bring the measured effect to its halfway point. In the case of `CC[C@H](C)[C@H](N)C(=O)N[C@H](C(=O)N[C@@H](CC(C)C)C(=O)N[C@@H](CO)C(=O)N[C@@H](CC(C)C)C(=O)N[C@@H](CC(=O)O)C(=O)N[C@H](C(=O)N1CCC[C@H]1C(=O)N[C@H](C(=O)N[C@@H](CCCCN)C(=O)N[C@@H](CC(C)C)C(=O)N[C@@H](CCCCNC(=O)COCCOCCNC(=O)COCCOCCNC(=O)CC[C@H](NC(=O)CCCCCCCCCCCCCCCCC(=O)O)C(=O)O)C(=O)N[C@@H](CCC(N)=O)C(=O)N[C@@H](CCCCN)C(=O)N[C@@H](CC(C)C)C(=O)N[C@@H](CC(C)C)C(=O)N[C@@H](CCCCN)C(=O)N[C@@H](CCC(N)=O)C(=O)N[C@@H](CCC(=O)O)C(=O)N[C@@H](CCCNC(=N)N)C(=O)N[C@@H](CCC(N)=O)C(=O)N[C@@H](CCCCN)C(=O)N[C@@H](CCCCN)C(=O)N[C@@H](CCC(N)=O)C(=O)N[C@@H](CCCNC(=N)N)C(=O)N[C@@H](CCC(=O)O)C(=O)N[C@@H](CCCCN)C(=O)N[C@@H](C)C(=O)N[C@@H](CCCCN)C(=O)N[C@H](C(=O)N[C@@H](CC(N)=O)C(=O)N[C@H](C(=O)N[C@@H](CCC(N)=O)C(=O)N[C@H](C(=O)N[C@@H](CC(C)C)C(=O)N[C@@H](C)C(=O)N[C@@H](CCC(N)=O)C(=O)N[C@H](C(N)=O)C(C)C)[C@@H](C)CC)C(C)C)[C@@H](C)O)[C@@H](C)CC)C(C)C)C(C)C` [compound 93] (H-IVLSLDVPIKLK([AEEA-AEEA-γGlu-C18 diacid])QKLLKQERQKKQREKAKTNVQILAQV-NH2; N-terminus assumed), under setting [1], the EC50 stood at 50.9 nM. For the molecule `CC[C@H](C)[C@H](N)C(=O)N[C@H](C(=O)N[C@@H](CC(C)C)C(=O)N[C@@H](CO)C(=O)N[C@@H](CC(C)C)C(=O)N[C@@H](CC(=O)O)C(=O)N[C@H](C(=O)N1CCC[C@H]1C(=O)N[C@H](C(=O)N[C@@H](CCCCN)C(=O)N[C@@H](CC(C)C)C(=O)N[C@@H](CCCCNC(=O)COCCOCCNC(=O)COCCOCCNC(=O)CC[C@H](NC(=O)CCCCCCCCCCCCCCCCC(=O)O)C(=O)O)C(=O)N[C@@H](CCCCN)C(=O)N[C@H](C(=O)N[C@@H](CC(C)C)C(=O)N[C@@H](CC(C)C)C(=O)N[C@@H](CCCCN)C(=O)N[C@@H](CCC(N)=O)C(=O)N[C@@H](CCC(=O)O)C(=O)N[C@@H](CCCNC(=N)N)C(=O)N[C@@H](CCC(N)=O)C(=O)N[C@@H](CCCCN)C(=O)N[C@@H](CCCCN)C(=O)N[C@@H](CCC(=O)O)C(=O)N[C@@H](CCCNC(=N)N)C(=O)N[C@@H](CCC(=O)O)C(=O)N[C@@H](CCC(N)=O)C(=O)N[C@@H](C)C(=O)N[C@@H](CCC(=O)O)C(=O)N[C@H](C(=O)N[C@@H](CC(N)=O)C(=O)N[C@@H](CCCCN)C(=O)N[C@@H](CCC(N)=O)C(=O)N[C@H](C(=O)N[C@@H](CC(C)C)C(=O)N[C@@H](C)C(=O)N[C@@H](CCC(N)=O)C(=O)N[C@H](C(N)=O)C(C)C)[C@@H](C)CC)[C@@H](C)O)[C@@H](C)CC)[C@@H](C)CC)C(C)C)C(C)C` [compound 94] (H-IVLSLDVPIKLK([AEEA-AEEA-γGlu-C18 diacid])KILLKQERQKKEREQAETNKQILAQV-NH2), the EC50 is, setting by setting: under setting [1], 1.73 nM; under setting [2], 49.1 nM. Consider `CC[C@H](C)[C@H](N)C(=O)N[C@H](C(=O)N[C@@H](CC(C)C)C(=O)N[C@@H](CO)C(=O)N[C@@H](CC(C)C)C(=O)N[C@@H](CC(=O)O)C(=O)N[C@H](C(=O)N1CCC[C@H]1C(=O)N[C@H](C(=O)N[C@@H](CCCCN)C(=O)N[C@@H](CC(C)C)C(=O)N[C@@H](CCCCNC(=O)COCCOCCNC(=O)COCCOCCNC(=O)CC[C@H](NC(=O)CCCCCCCCCCCCCCCCC(=O)O)C(=O)O)C(=O)N[C@@H](CCC(N)=O)C(=O)N[C@@H](CCCCN)C(=O)N[C@@H](CC(C)C)C(=O)N[C@@H](CC(C)C)C(=O)N[C@@H](CCCCN)C(=O)N[C@@H](CCC(N)=O)C(=O)N[C@@H](CCC(=O)O)C(=O)N[C@@H](CCCNC(=N)N)C(=O)N[C@@H](CCC(N)=O)C(=O)N[C@@H](CCCCN)C(=O)N[C@@H](CCCCN)C(=O)N[C@@H](CCC(=O)O)C(=O)N[C@@H](CCCNC(=N)N)C(=O)N[C@@H](CCC(=O)O)C(=O)N[C@@H](CCC(N)=O)C(=O)N[C@@H](C)C(=O)N[C@@H](CCC(=O)O)C(=O)N[C@H](C(=O)N[C@@H](CC(N)=O)C(=O)N[C@@H](CCCCN)C(=O)N[C@@H](CCC(N)=O)C(=O)N[C@H](C(=O)N[C@@H](CC(C)C)C(=O)N[C@@H](C)C(=O)N[C@@H](CCC(N)=O)C(=O)N[C@H](C(N)=O)C(C)C)[C@@H](C)CC)[C@@H](C)O)[C@@H](C)CC)C(C)C)C(C)C` [compound 95] (H-IVLSLDVPIKLK([AEEA-AEEA-γGlu-C18 diacid])QKLLKQERQKKEREQAETNKQILAQV-NH2; N-terminus assumed), for which the EC50 under setting [1] turned out to be 25 nM. The same measure, in the same setting: the result for `CC[C@H](C)[C@H](N)C(=O)N[C@H](C(=O)N[C@@H](CC(C)C)C(=O)N[C@@H](CO)C(=O)N[C@@H](CC(C)C)C(=O)N[C@@H](CC(=O)O)C(=O)N[C@H](C(=O)N1CCC[C@H]1C(=O)N[C@H](C(=O)N[C@@H](CCCCN)C(=O)N[C@@H](CC(C)C)C(=O)N[C@@H](CCCCNC(=O)COCCOCCNC(=O)COCCOCCNC(=O)CC[C@H](NC(=O)CCCCCCCCCCCCCCCCC(=O)O)C(=O)O)C(=O)N[C@@H](CCC(N)=O)C(=O)N[C@@H](CCCCN)C(=O)N[C@@H](CC(C)C)C(=O)N[C@@H](CC(C)C)C(=O)N[C@@H](CCCCN)C(=O)N[C@@H](CCC(N)=O)C(=O)N[C@@H](CCC(=O)O)C(=O)N[C@@H](CCCNC(=N)N)C(=O)N[C@@H](CCC(N)=O)C(=O)N[C@@H](CCCCN)C(=O)N[C@@H](CCCCN)C(=O)N[C@@H](CCC(N)=O)C(=O)N[C@@H](CCCNC(=N)N)C(=O)N[C@@H](CCC(=O)O)C(=O)N[C@@H](CCC(N)=O)C(=O)N[C@@H](C)C(=O)N[C@@H](CCC(=O)O)C(=O)N[C@H](C(=O)N[C@@H](CC(N)=O)C(=O)N[C@@H](CCCCN)C(=O)N[C@@H](CCC(N)=O)C(=O)N[C@H](C(=O)N[C@@H](CC(C)C)C(=O)N[C@@H](C)C(=O)N[C@@H](CCC(N)=O)C(=O)N[C@H](C(N)=O)C(C)C)[C@@H](C)CC)[C@@H](C)O)[C@@H](C)CC)C(C)C)C(C)C` [compound 97] (H-IVLSLDVPIKLK([AEEA-AEEA-γGlu-C18 diacid])QKLLKQERQKKQREQAETNKQILAQV-NH2) reads 1.66 nM. For the molecule `CC[C@H](C)[C@H](N)C(=O)N[C@H](C(=O)N[C@@H](CC(C)C)C(=O)N[C@@H](CO)C(=O)N[C@@H](CC(C)C)C(=O)N[C@@H](CC(=O)O)C(=O)N[C@H](C(=O)N1CCC[C@H]1C(=O)N[C@H](C(=O)N[C@@H](CCCCN)C(=O)N[C@@H](CC(C)C)C(=O)N[C@@H](CCCCNC(=O)COCCOCCNC(=O)COCCOCCNC(=O)CC[C@H](NC(=O)CCCCCCCCCCCCCCCCC(=O)O)C(=O)O)C(=O)N[C@@H](CCC(N)=O)C(=O)N[C@@H](CCCCN)C(=O)N[C@@H](CC(C)C)C(=O)N[C@@H](CC(C)C)C(=O)N[C@@H](CCCCN)C(=O)N[C@@H](CCC(N)=O)C(=O)N[C@@H](CCC(=O)O)C(=O)N[C@@H](CCCNC(=N)N)C(=O)N[C@@H](CCC(N)=O)C(=O)N[C@@H](CCCCN)C(=O)N[C@@H](CCCCN)C(=O)NC(C)(C)C(=O)N[C@@H](CCCNC(=N)N)C(=O)N[C@@H](CCC(=O)O)C(=O)N[C@@H](CCC(N)=O)C(=O)N[C@@H](C)C(=O)N[C@@H](CCC(=O)O)C(=O)N[C@H](C(=O)N[C@@H](CC(N)=O)C(=O)N[C@@H](CCCCN)C(=O)N[C@@H](CCC(N)=O)C(=O)N[C@H](C(=O)N[C@@H](CC(C)C)C(=O)N[C@@H](C)C(=O)N[C@@H](CCC(N)=O)C(=O)N[C@H](C(N)=O)C(C)C)[C@@H](C)CC)[C@@H](C)O)[C@@H](C)CC)C(C)C)C(C)C` [compound 98] (H-IVLSLDVPIKLK([AEEA-AEEA-γGlu-C18 diacid])QKLLKQERQKK[Aib]REQAETNKQILAQV-NH2; N-terminus assumed), the half-maximal effective concentration (EC50) under setting [1] worked out at 2.36 nM. For the molecule `CC[C@H](C)[C@H](N)C(=O)N[C@H](C(=O)N[C@@H](CC(C)C)C(=O)N[C@@H](CO)C(=O)N[C@@H](CC(C)C)C(=O)N[C@@H](CC(=O)O)C(=O)N[C@H](C(=O)N1CCC[C@H]1C(=O)N[C@H](C(=O)N[C@@H](CCCCN)C(=O)N[C@@H](CC(C)C)C(=O)N[C@@H](CCCCNC(=O)COCCOCCNC(=O)COCCOCCNC(=O)CC[C@H](NC(=O)CCCCCCCCCCCCCCCCC(=O)O)C(=O)O)C(=O)N[C@@H](CCC(N)=O)C(=O)N[C@H](C(=O)N[C@@H](CC(C)C)C(=O)N[C@@H](CC(C)C)C(=O)N[C@@H](CCCCN)C(=O)N[C@@H](CCC(N)=O)C(=O)N[C@@H](CCC(=O)O)C(=O)N[C@@H](CCCNC(=N)N)C(=O)N[C@@H](CCC(N)=O)C(=O)N[C@@H](CCCCN)C(=O)NC(C)(C)C(=O)N[C@@H](CCC(N)=O)C(=O)N[C@@H](CCCNC(=N)N)C(=O)N[C@@H](CCC(=O)O)C(=O)N[C@@H](CCC(N)=O)C(=O)N[C@@H](C)C(=O)N[C@@H](CCC(=O)O)C(=O)N[C@H](C(=O)N[C@@H](CC(N)=O)C(=O)N[C@@H](CCCCN)C(=O)N[C@@H](CCC(N)=O)C(=O)N[C@H](C(=O)N[C@@H](CC(C)C)C(=O)N[C@@H](CCC(=O)O)C(=O)N[C@@H](CCCNC(=N)N)C(=O)N[C@H](C(N)=O)C(C)C)[C@@H](C)CC)[C@@H](C)O)[C@@H](C)CC)[C@@H](C)CC)C(C)C)C(C)C` [compound 107] (H-IVLSLDVPIKLK([AEEA-AEEA-γGlu-C18 diacid])QILLKQERQK[Aib]QREQAETNKQILERV-NH2), the EC50 under setting [1] was 0.81 nM and the EC50 under setting [2] worked out at 16.1 nM.
